# Patent US11440899B2, “Pyrimidine TBK/IKKe inhibitor compounds and uses thereof” (Merck Patent GmbH, priority 2017, dated 2022)
# Structures can show the parent of a compound that is named as a salt.
# How the values were obtained:
# IKKe = IKKe (Homo sapiens (Human), UniProt Q14164); experiment: IKKe Biochemical Assay
# Procedure: IKKe Biochemical Assay Test compounds were transferred into Labcyte polypropylene 384 well plates ([…]-25) and diluted to 3 mM using DMSO. 3 mM test compounds were dispensed using Labcyte ECHO dose response module into Greiner 784075 plates (columns 3-12 and 13-22, 10 point 1:4) so that high concentration was 30 uM final. 100 uM of a reference compound (1 uM final high concentration). Backfilling was performed if necessary so that all wells contain 1% DMSO final: add 75 nl DMSO/well into columns 1, 2 and 24 using Labcyte Echo. add 75 nl 1.0 mM staurosporine/well into column 23 using Labcyte Echo (10 uM final) add 4.5 ul enzyme/well using multidrop dispenser add 3 ul substrate/well using multidrop dispenser incubate at 25° C. for 90 min. add 7.5 ul 2× stop buffer read on labchip ez reader II using IKKε. job Raw data files were opened in the Caliper LabChip Reviewer program (Version 3.0.265.0 SP2) and peak assignments were adjusted to reflect “substrate first” with the software's post-run analysis options. A spline-fit baseline was applied using the software's analysis algorithm.
# TBK1 = TBK1 (Homo sapiens (Human), UniProt Q9UHD2); experiment: TBK Biochemical Assay
# TBK1, sequence (Q9UHD2 whole entry, species assumed): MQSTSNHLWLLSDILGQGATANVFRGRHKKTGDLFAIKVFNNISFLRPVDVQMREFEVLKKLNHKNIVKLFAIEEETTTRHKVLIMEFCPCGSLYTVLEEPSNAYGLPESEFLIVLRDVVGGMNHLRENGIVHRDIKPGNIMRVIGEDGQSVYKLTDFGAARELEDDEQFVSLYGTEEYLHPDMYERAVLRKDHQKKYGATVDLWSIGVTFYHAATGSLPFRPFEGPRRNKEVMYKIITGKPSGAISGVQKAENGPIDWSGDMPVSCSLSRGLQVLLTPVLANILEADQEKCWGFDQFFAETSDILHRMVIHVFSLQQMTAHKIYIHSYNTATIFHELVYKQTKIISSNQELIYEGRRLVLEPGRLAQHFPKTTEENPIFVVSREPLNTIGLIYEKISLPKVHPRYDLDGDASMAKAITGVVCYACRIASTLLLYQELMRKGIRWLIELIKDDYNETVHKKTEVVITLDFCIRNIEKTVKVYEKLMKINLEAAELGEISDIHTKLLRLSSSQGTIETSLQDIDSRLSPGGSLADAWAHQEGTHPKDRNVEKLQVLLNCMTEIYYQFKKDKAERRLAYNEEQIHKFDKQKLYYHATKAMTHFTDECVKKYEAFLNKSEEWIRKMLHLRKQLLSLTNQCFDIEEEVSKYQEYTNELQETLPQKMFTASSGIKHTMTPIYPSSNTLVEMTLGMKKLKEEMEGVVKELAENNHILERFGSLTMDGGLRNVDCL
# Procedure: Example 106: TBK Biochemical Assay Test compounds were transferred into Labcyte polypropylene 384 well plates ([…]-25) and diluted to 3 mM using DMSO. 3 mM test compounds were dispensed using Labcyte ECHO dose response module into Greiner 784075 plates (columns 3-12 and 13-22, 10 point 1:4) so that high concentration was 30 uM final. 100 uM of a reference compound (1 uM final high concentration). Backfilling was performed if necessary so that all wells contain 1% DMSO final: add 75 nl DMSO/well into columns 1, 2 and 24 using Labcyte Echo. add 75 nl 1.0 mM staurosporine/well into column 23 using Labcyte Echo (10 uM final) add 4.5 ul enzyme/well using multidrop dispenser add 3 ul substrate/well using multidrop dispenser incubate at 25° C. in Heidolph incubator for 90 min. add 7.5 ul 2× stop buffer using multidrop dispenser read on labchip ez reader II using TBK1.job Raw data files were opened in the Caliper LabChip Reviewer program (Version 3.0.265.0 SP2) and peak assignments were adjusted to reflect “substrate first” with the software's post-run analysis options. A spline-fit baseline was applied using the software's analysis algorithm.
# IKKe, sequence (Q14164 whole entry, species assumed): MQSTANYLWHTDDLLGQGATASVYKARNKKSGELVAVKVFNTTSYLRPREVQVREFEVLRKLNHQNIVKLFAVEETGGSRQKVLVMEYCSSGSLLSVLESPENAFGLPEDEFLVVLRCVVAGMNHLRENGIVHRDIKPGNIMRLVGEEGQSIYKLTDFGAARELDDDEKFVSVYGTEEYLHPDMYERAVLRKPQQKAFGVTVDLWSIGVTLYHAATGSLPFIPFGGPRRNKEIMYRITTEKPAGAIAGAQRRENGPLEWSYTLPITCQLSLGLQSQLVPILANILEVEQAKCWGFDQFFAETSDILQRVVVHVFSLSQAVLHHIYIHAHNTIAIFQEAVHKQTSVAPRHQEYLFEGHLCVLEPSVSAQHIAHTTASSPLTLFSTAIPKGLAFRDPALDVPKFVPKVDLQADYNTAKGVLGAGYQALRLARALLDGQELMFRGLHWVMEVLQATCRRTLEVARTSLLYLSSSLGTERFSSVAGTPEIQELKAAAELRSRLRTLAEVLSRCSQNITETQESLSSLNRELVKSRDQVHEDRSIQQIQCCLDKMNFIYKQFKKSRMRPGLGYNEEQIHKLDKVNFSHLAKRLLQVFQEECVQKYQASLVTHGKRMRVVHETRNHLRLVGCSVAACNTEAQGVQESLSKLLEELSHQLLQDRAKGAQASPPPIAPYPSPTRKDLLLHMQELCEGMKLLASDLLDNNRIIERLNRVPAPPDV
SMILES,IC50 (IKKe) [nM],IC50 (TBK1) [nM]
"COc1nc(Nc2cc(-c3ccc(OC4CCNCC4)c(C#N)c3)ncn2)ccc1N1CCN(C)CC1 [Example 50, 5-(6-[[6-methoxy-5-(4-methylpiperazin-1-yl)pyridin-2-yl]amino]pyrimidin-4-yl)-2-(piperidin-4-yloxy)benzonitrile]",< 100,< 100
"COc1nc(Nc2cc(-c3ccc(OC4CCN(C)CC4)c(C#N)c3)ncn2)ccc1N1CCN(C)CC1 [Example 51, 5-(6-[[6-methoxy-5-(4-methylpiperazin-1-yl)pyridin-2-yl]amino]pyrimidin-4-yl)-2-[(1-methylpiperidin-4-yl)oxy]benzonitrile]",100 to 1000,100 to 1000
"COc1nc(Nc2cc(-c3ccc(OC4CCN(C(=O)CO)CC4)c(C#N)c3)ncn2)ccc1N1CCN(C)CC1 [Example 52, 2-[[1-(2-hydroxyacetyl)piperidin-4-yl]oxy]-5-(6-[[6-methoxy-5-(4-methylpiperazin-1-yl)pyridin-2-yl]amino]pyrimidin-4-yl)benzonitrile]",< 100,< 100
"COc1nc(Nc2cc(-c3ccc(OC4CCN(C(=O)C(C)O)CC4)c(C#N)c3)ncn2)ccc1N1CCN(C)CC1 (stereo not drawn) [Example 53, 2-[[1-(2-hydroxypropanoyl)piperidin-4-yl]oxy]-5-(6-[[6-methoxy-5-(4-methylpiperazin-1-yl)pyridin-2-yl]amino]pyrimidin-4-yl)benzonitrile]",< 100,< 100
"COc1nc(Nc2cc(-c3ccc(OC4CCN(C(=O)c5cocn5)CC4)c(C#N)c3)ncn2)ccc1N1CCN(C)CC1 [Example 54, 5-(6-[[6-methoxy-5-(4-methylpiperazin-1-yl)pyridin-2-yl]amino]pyrimidin-4-yl)-2-([1-[(1,3-oxazol-4-yl)carbonyl]piperidin-4-yl]oxy)benzonitrile]",< 100,< 100
"COc1nc(Nc2cc(-c3ccc(OC4CCN(C(=O)c5n[nH]c(C)n5)CC4)c(C#N)c3)ncn2)ccc1N1CCN(C)CC1 [Example 55, 5-(6-[[6-methoxy-5-(4-methylpiperazin-1-yl)pyridin-2-yl]amino]pyrimidin-4-yl)-2-([1-[(5-methyl-1H-1,2,4-triazol-3-yl)carbonyl]piperidin-4-yl]oxy)benzonitrile]",< 100,< 100
"COc1nc(Nc2cc(-c3ccc(OC4CCN(C(=O)c5cnco5)CC4)c(C#N)c3)ncn2)ccc1N1CCN(C)CC1 [Example 56, 5-(6-[[6-methoxy-5-(4-methylpiperazin-1-yl)pyridin-2-yl]amino]pyrimidin-4-yl)-2-([1-[(1,3-oxazol-5-yl)carbonyl]piperidin-4-yl]oxy)benzonitrile]",< 100,< 100
"COc1nc(Nc2cc(-c3ccc(O[C@H]4CCN(C(=O)c5cnn[nH]5)C[C@H]4F)c(C#N)c3)ncn2)ccc1N1CCN(C)CC1 [Example 57, 2-[[(3R,4S)-3-fluoro-1-[(1H-1,2,3-triazol-5-yl)carbonyl]piperidin-4-yl]oxy]-5-(6-[[6-methoxy-5-(4-methylpiperazin-1-yl)pyridin-2-yl]amino]pyrimidin-4-yl)benzonitrile]",< 100,< 100
"COc1nc(Nc2cc(-c3ccc(OC4CCN(C)CC4(F)F)c(C#N)c3)ncn2)ccc1N1CCN(C)CC1 (stereo not drawn) [Example 58, 2-[(3,3-difluoro-1-methylpiperidin-4-yl)oxy]-5-(6-[[6-methoxy-5-(4-methylpiperazin-1-yl)pyridin-2-yl]amino]pyrimidin-4-yl)benzonitrile]",< 100,< 100
"COc1nc(Nc2cc(-c3ccc(OC4CCN(C(=O)CO)CC4(F)F)c(C#N)c3)ncn2)ccc1N1CCN(C)CC1 (stereo not drawn) [Example 59, 2-[[3,3-difluoro-1-(2-hydroxyacetyl)piperidin-4-yl]oxy]-5-(6-[[6-methoxy-5-(4-methylpiperazin-1-yl)pyridin-2-yl]amino]pyrimidin-4-yl)benzonitrile]",< 100,< 100
"COc1nc(Nc2cc(-c3ccc(O[C@H]4CCN(C(=O)CO)CC4(F)F)c(C#N)c3)ncn2)ccc1N1CCN(C)CC1 [Example 60, 2-[[(4S)-3,3-difluoro-1-(2-hydroxyacetyl)piperidin-4-yl]oxy]-5-(6-[[6-methoxy-5-(4-methylpiperazin-1-yl)pyridin-2-yl]amino]pyrimidin-4-yl)benzonitrile]",< 100,< 100
"COc1nc(Nc2cc(-c3ccc(OC4CCN(C(=O)[C@H](C)O)CC4(F)F)c(C#N)c3)ncn2)ccc1N1CCN(C)C[C@@H]1C (stereo partly drawn) [Example 62, 2-([3,3-difluoro-1-[(2S)-2-hydroxypropanoyl]piperidin-4-yl]oxy)-5-[6-([5-[(2S)-2,4-dimethylpiperazin-1-yl]-6-methoxypyridin-2-yl]amino)pyrimidin-4-yl]benzonitrile hydrochloride]",< 100,< 100
"COc1nc(Nc2cc(-c3ccc(OC4CCN(C(=O)[C@@H](C)O)CC4(F)F)c(C#N)c3)ncn2)ccc1N1CCN(C)C[C@@H]1C (stereo partly drawn) [Example 63, 2-([3,3-difluoro-1-[(2R)-2-hydroxypropanoyl]piperidin-4-yl]oxy)-5-[6-([5-[(2S)-2,4-dimethylpiperazin-1-yl]-6-methoxypyridin-2-yl]amino)pyrimidin-4-yl]benzonitrile hydrochloride]",< 100,< 100
"COc1nc(Nc2cc(-c3ccc(OC4CCNCC4(F)F)c(C#N)c3)ncn2)ccc1N1CCN(C)C[C@H]1C (stereo partly drawn) [Example 64, 2-[(3,3-difluoropiperidin-4-yl)oxy]-5-[6-({5-[(2R)-2,4-dimethylpiperazin-1-yl]-6-methoxypyridin-2-yl}amino)pyrimidin-4-yl]benzonitrile]",< 100,< 100
"COc1nc(Nc2cc(-c3ccc(OC4CCN(C(=O)[C@H](C)O)CC4(F)F)c(C#N)c3)ncn2)ccc1N1CCN(C)C[C@H]1C (stereo partly drawn) [Example 65, 2-([3,3-difluoro-1-[(2S)-2-hydroxypropanoyl]piperidin-4-yl]oxy)-5-[6-([5-[(2R)-2,4-dimethylpiperazin-1-yl]-6-methoxypyridin-2-yl]amino)pyrimidin-4-yl]benzonitrile hydrochloride]",< 100,< 100
"COc1nc(Nc2cc(-c3ccc(OC4CCN(C(=O)[C@@H](C)O)CC4(F)F)c(C#N)c3)ncn2)ccc1N1CCN(C)C[C@H]1C (stereo partly drawn) [Example 66, 2-([3,3-difluoro-1-[(2R)-2-hydroxypropanoyl]piperidin-4-yl]oxy)-5-[6-([5-[(2R)-2,4-dimethylpiperazin-1-yl]-6-methoxypyridin-2-yl]amino)pyrimidin-4-yl]benzonitrile hydrochloride]",< 100,< 100
"COc1nc(Nc2cc(-c3ccc(OC4CCNCC4(F)F)c(C#N)c3)ncn2)ccc1N1CCN(C2COC2)C[C@@H]1C (stereo partly drawn) [Example 67, 2-[(3,3-difluoropiperidin-4-yl)oxy]-5-[6-({6-methoxy-5-[(2S)-2-methyl-4-(oxetan-3-yl)piperazin-1-yl]pyridin-2-yl}amino)pyrimidin-4-yl]benzonitrile]",< 100,< 100
"COc1nc(Nc2cc(-c3ccc(OC4CCN(C(=O)[C@@H](C)O)CC4(F)F)c(C#N)c3)ncn2)ccc1N1CCN(C2COC2)C[C@@H]1C (stereo partly drawn) [Example 68, 2-([3,3-difluoro-1-[(2R)-2-hydroxypropanoyl]piperidin-4-yl]oxy)-5-[6-([6-methoxy-5-[(2S)-2-methyl-4-(oxetan-3-yl)piperazin-1-yl]pyridin-2-yl]amino)pyrimidin-4-yl]benzonitrile]",< 100,< 100
